# pIC50: −log10 of the molar value.
# Target: T1, NLRP3 (Homo sapiens, UniProt Q96P20)
# T1 construct: Seed THP-1 cells (25,000 cells/well) containing 1.0 μg/ml LPS in 40 μl of RPMI medium; host or cells: THP-1 cells
# Test: THP-1 Cells Pyroptosis Assay
# Assay type: cell-based
# Conditions: THP-1 cells with 1.0 μg/ml LPS; compound 3 hours; nigericin 5 μM 1 hr; resazurin readout
# Summary of the method: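 THP-1 cells in serum-free RPMI primed with LPS (1 μg/ml FAC), incubated with compound 3 h at 37 °C, then nigericin (5 μM FAC) for 1 h. Supernatant removed after spin; viability read by resazurin (100 μM FAC) reduction after a further 1-2 h at 37 °C.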
# T1 sequence (Q96P20 whole entry): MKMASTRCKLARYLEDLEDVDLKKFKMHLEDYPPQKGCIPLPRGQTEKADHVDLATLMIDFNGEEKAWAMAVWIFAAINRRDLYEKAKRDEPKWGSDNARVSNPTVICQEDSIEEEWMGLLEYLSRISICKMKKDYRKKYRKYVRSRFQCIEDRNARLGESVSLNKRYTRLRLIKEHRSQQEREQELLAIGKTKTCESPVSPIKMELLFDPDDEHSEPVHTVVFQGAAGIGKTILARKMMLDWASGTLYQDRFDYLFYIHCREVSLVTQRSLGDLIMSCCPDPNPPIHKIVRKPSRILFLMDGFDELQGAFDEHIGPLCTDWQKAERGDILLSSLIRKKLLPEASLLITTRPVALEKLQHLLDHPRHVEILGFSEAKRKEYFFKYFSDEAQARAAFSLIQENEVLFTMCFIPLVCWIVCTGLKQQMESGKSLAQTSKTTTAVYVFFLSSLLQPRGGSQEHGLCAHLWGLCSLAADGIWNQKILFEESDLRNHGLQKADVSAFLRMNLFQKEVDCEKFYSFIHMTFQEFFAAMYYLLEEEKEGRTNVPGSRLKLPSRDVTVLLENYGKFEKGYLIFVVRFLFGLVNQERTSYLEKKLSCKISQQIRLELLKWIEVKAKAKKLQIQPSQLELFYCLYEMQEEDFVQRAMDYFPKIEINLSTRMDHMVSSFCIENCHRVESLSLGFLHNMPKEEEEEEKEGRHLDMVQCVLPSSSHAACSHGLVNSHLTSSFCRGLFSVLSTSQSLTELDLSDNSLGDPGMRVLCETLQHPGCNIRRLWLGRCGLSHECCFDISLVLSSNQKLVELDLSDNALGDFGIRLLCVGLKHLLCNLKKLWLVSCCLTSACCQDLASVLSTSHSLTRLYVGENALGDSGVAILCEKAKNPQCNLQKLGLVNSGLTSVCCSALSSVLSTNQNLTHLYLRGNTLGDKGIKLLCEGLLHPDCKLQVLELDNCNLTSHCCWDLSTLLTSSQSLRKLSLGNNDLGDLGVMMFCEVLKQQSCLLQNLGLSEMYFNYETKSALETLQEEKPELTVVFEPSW
row,Compound,pIC50
1,"Cc1cc(C(F)(F)F)cc(O)c1-c1ccc2oc(N3CCO[C@@H]4CNC[C@H]43)nc2n1 [Example 64A, 2-[2-[(4aR,7aR)-3,4a,5,6,7,7a-Hexahydro-2H-pyrrolo[3,4-b][1,4]oxazin-4-yl]oxazolo[4,5-b]pyridin-5-yl]-3-methyl-5-(trifluoromethyl)phenol]",8.77
2,"Cc1cc(C(F)(F)F)cc(O)c1-c1ccc2oc(N3CCO[C@H]4CNC[C@@H]43)nc2n1 [Example 64B, 2-[2-[(4aS,7aS)-3,4a,5,6,7,7a-Hexahydro-2H-pyrrolo[3,4-b][1,4]oxazin-4-yl]oxazolo[4,5-b]pyridin-5-yl]-3-methyl-5-(trifluoromethyl)phenol]",7.86
3,"Cc1cc(Cl)cc(O)c1-c1ccc2oc(NC3CCC4CCCN4C3)nc2n1 (stereo not drawn) [Example 65, 2-[2-(1,2,3,5,6,7,8,8a-Octahydroindolizin-6-ylamino)oxazolo[4,5-b]pyridin-5-yl]-5-chloro-3-methyl-phenol]",7.69
4,"Cc1cc(C(F)(F)F)cc(O)c1-c1ccc2oc(NCC3CCN3C)nc2n1 (stereo not drawn) [Example 66, 3-Methyl-2-[2-[(1-methylazetidin-2-yl)methylamino]oxazolo[4,5-b]pyridin-5-yl]-5-(trifluoromethyl)phenol]",6.83
5,"Cc1cc(Cl)cc(O)c1-c1ccc2oc(NCc3c[nH]cn3)nc2n1 [Example 67, 5-Chloro-2-[2-(1H-imidazol-5-ylmethylamino)oxazolo[4,5-b]pyridin-5-yl]-3-methyl-phenol; formic acid]",6.54
6,"CCN1C[C@H](O)C[C@@H](Nc2nc3nc(-c4c(C)cc(Cl)cc4O)ccc3o2)C1 [Example 68, (3R,5R)-5-[[5-(4-Chloro-2-hydroxy-6-methyl-phenyl)oxazolo[4,5-b]pyridin-2-yl]amino]-1-ethyl-piperidin-3-ol;formic acid]",7.20
7,"Cc1ccc(C)c(-c2ccc3oc(N[C@@H]4CCCN(C)C4)nc3n2)c1O [Example 69, 3,6-Dimethyl-2-[2-[[(3R)-1-methyl-3-piperidyl]amino]oxazolo[4,5-b]pyridin-5-yl]phenol]",8.57
8,CCN1C[C@@H](O)C[C@@H](Nc2nc3nc(-c4c(C)cc(C)cc4O)ccc3o2)C1 [Example 70],8.42
9,"CCN1C[C@H](O)C[C@@H](Nc2nc3nc(-c4c(C)cc(C#N)cc4O)ccc3o2)C1 [Example 71, 4-[2-[[(3R,5R)-1-Ethyl-5-hydroxy-3-piperidyl]amino]oxazolo[4,5-b]pyridin-5-yl]-3-hydroxy-5-methyl-benzonitrile]",8.96
10,"Cc1cc(Cl)cc(O)c1-c1ccc2oc(C3CCC(=O)NC3)nc2n1 (stereo not drawn) [Example 73, 5-[5-(4-Chloro-2-hydroxy-6-methyl-phenyl)oxazolo[4,5-b]pyridin-2-yl]piperidin-2-one]",7.52
11,"Cc1cc(Cl)cc(O)c1-c1ccc2oc(N[C@@H]3CCCN(CCC(F)F)C3)nc2n1 [Example 74, 5-Chloro-2-[2-[[(3R)-1-(3,3-difluoropropyl)-3-piperidyl]amino]oxazolo[4,5-b]pyridin-5-yl]-3-methyl-phenol]",8.04
12,"Cc1cc(Cl)cc(O)c1-c1ccc2oc(N[C@@H]3CCCN(CC4CC(O)C4)C3)nc2n1 (stereo partly drawn) [Example 75, 5-Chloro-3-methyl-2-[2-[[(3R)-1-[(3-hydroxycyclobutyl)methyl]-3-piperidyl]amino]oxazolo-[4,5-b]pyridin-5-yl]phenol]",7.68
13,"Cc1cc(Cl)cc(O)c1-c1ccc2oc(NCc3ncc[nH]3)nc2n1 [Example 76, 5-Chloro-2-[2-(1H-imidazol-2-ylmethylamino)oxazolo[4,5-b]pyridin-5-yl]-3-methyl-phenol]",6.84
14,"Cc1cc(C(F)(F)F)cc(O)c1-c1ccc2oc(N3CCCC(CO)C3)nc2n1 (stereo not drawn) [Example 77, 2-[2-[3-(Hydroxymethyl)-1-piperidyl]oxazolo[4,5-b]pyridin-5-yl]-3-methyl-5-(trifluoromethyl)phenol]",6.87
15,"Cc1cc(C(F)(F)F)cc(O)c1-c1ccc2oc(N3CCC(CO)CC3)nc2n1 [Example 78, 2-[2-[4-(Hydroxymethyl)-1-piperidyl]oxazolo[4,5-b]pyridin-5-yl]-3-methyl-5-(trifluoromethyl)phenol]",7.23

# From patent publication US20240279237A1, “FUSED BICYCLIC HETEROARYL COMPOUNDS USEFUL AS NLRP3 INHIBITORS” (Hoffmann-La Roche Inc., priority 2021, published 2024)
